Data on five compounds can be found in patent publication EP0237411A1, “(Piperidino-3)propoxy-5p-cymene, its acetyl, acetoxy and hydroxy derivatives, salts of these products, process for the preparation of these compounds and medicines containing at least one of these products as active principle” (INSTITUT DE RECHERCHES CHIMIQUES ET BIOLOGIQUES APPLIQUEES …, priority 1986, dated 1987).

Read-outs that look alike come from different tables or passages of the source. Where only a bound is given, the exact number is not on record here.

Series [1] concerns canal déférent isolé de rat. Put plainly: α-adrenolytic action in vitro: antagonism of noradrenaline-induced contractions of isolated rat vas deferens (pA2). The series is classed as cell-based. The settings on record: pA2 against noradrenaline, read-out: Action α-bloquante vis-à-vis de la noradrénaline PA2 sur canal déférent isolé (converted). The text has this:
2. Détermination de l'action α-adrénolytique "in vitro" sur le canal déférent du rat.
La noradrénaline provoque des contractions du canal déférent isolé de rat. La présence dans le bain de l'organe de substances α-bloquantes antagonise ces contractions.
L'utilisation de concentrations croissantes de substances α-bloquantes permet de calculer : . la PA₂ des composés sur le canal déférent de rat.
La PA₂ étant le logarithme changé de signe de la concentration molaire des produits B 1O2O - B 1O21 - B 1O37 - -B 1O59 en présence de laquelle il faut multiplier par deux la concentration de noradrénaline pour obtenir le même effet qu'en l'absence dudit produit.

Series [2] deals with effet hypertenseur de la noradrénaline. The series can be described thus: Urethral specificity of alpha-blocking activity in vivo in the rabbit: inhibition of noradrenaline-induced rise of arterial and urethral pressure. On the set-up: species or system lapin. As to conditions: for ED50: Oryctolagus cuniculus, intravenous administration; for R DI50 (a) DI50 (u): ratio of arterial DI50 to urethral DI50. The text has this: 4. Spécificité urétrale de l'activité alpha bloquante déterminée in vivo chez le lapin :
a) - Principe de la mesure
. La noradérnaline (I.V.) provoque des augmentations dépendantes des doses de la pression artérielle et de la pression urétrale. Les substances adrénolytiques alpha antagonisent ces augmentations de pression.
. Pour les produits B 1020 - B 1037 et B 1059 administrés par voie veineuse, nous avons déterminé les doses inhibant de 50 p. cent (DI₅₀ ) l'effet de la noradrénaline au niveau artériel et urétral et évaluer le rapport R de ces DI₅₀ .

The nature of series [3]: Acute toxicity test in the mouse (oral). The settings on record: in vivo, read-out: Mortalité en %. The text has this:
1. Tests de toxicité aiguë chez la souris
Les résultats sont rapportés dans le tableau 1.

The test system of series [4] is récepteurs α-adrénergiques. Put plainly: Adrenolytic activity in vivo in the rat: protection against death induced by i.v. noradrenaline. The settings on record: 50 mg/kg P.O, 30 min before i.v. noradrenaline (0,4 mg/kg). The method, then: 3. Détermination de l'activité adrénolytique "in vivo" chez le rat
. La noradrénaline injectée à fortes doses par voie intraveineuse provoque la mort de 1OO % des animaux dans les 15 min qui suivent son injection. La mort survient par oedème pulmonaire dû à l'hypertension artérielle induite principalement par la stimulation des récepteurs α-adrénergiques.
. L'administration préalable de substances α-adrénolytiques par voie orale permet de réduire la toxicité de la noradrénaline.
Les produits B 1O2O - B 1O21 - B 1O37 - B 1O59 sont administrés par voie orale 3O min avant l'injection intraveineuse de noradrénaline (O,4 mg/kg).

The mark [5] stands for this setting: arterial pressure, read-out: Doses inhibant de 50 p.cent (DI50) l'effet hypertenseur de la noradrénaline au niveau artériel DI50 (a).
Setting [6] is: urethral pressure, read-out: Doses inhibant de 50 p.cent (DI50) l'effet hypertenseur de la noradrénaline au niveau urétral DI50 (u).

Consider `Cc1ccc(C(C)C)c(OCCCN2CCCCC2)c1` [B 1020, chlorhydrate du [(pipéridino-3)propoxy]-3 p.cymène], for which the Kb in series [1] is 302 nM. For the same compound, the values for the ED50 in series [2] (setting [5]) and in series [2] (setting [6]) were over 3 mg/kg and 1.7 mg/kg, respectively. For the same compound, in series [2], the “R DI50 (a) DI50 (u)” value was > 1,7. Further, the mortality in series [3] (100 mg/kg) is 0%; in series [3] (1000 mg/kg) it was 40%. Further, the “% de protection contre la mort” value in series [4] is 80%.

For `CC(=O)c1cc(C(C)C)c(OCCCN2CCCCC2)cc1C` [B 1021, chlorhydratede l'acétyl-2-[(pipéridino-3)propoxy]-5 p.cymène], the Kb in series [1] is 1740 nM. In addition, the mortality is 20% in series [3] (100 mg/kg) and 100% in series [3] (1000 mg/kg). For the same compound, the “% de protection contre la mort” value in series [4] was determined as 40%.

Turning to `Cc1cc(OCCCN2CCCCC2)c(C(C)C)cc1O` [B 1037, chlorhydratede l'hydroxy-2-[(pipéridino-3)propoxy]-5 p.cymène], the Kb in series [1] was 151 nM. The ED50 in series [2] (setting [5]) was over 3 mg/kg; in series [2] (setting [6]) it was 0.5 mg/kg. Besides, the “R DI50 (a) DI50 (u)” value in series [2] was over 6. The mortality in series [3] (100 mg/kg) came to 0%; in series [3] (1000 mg/kg) it was 100%. Further, the “% de protection contre la mort” value in series [4] is 50%.

Turning to `CC(=O)Oc1cc(C(C)C)c(OCCCN2CCCCC2)cc1C` [B 1059, chlorhydratede l'acétoxy-2-[(pipéridino-3)propoxy]-5 p.cymène], in series [1], the Kb was 126 nM. Also, the ED50 in series [2] (setting [5]) was over 3 mg/kg; in series [2] (setting [6]), 0.8 mg/kg. In addition, in series [2], the “R DI50 (a) DI50 (u)” value is given as > 3,7. In addition, the figures for the mortality in series [3] (100 mg/kg) and in series [3] (1000 mg/kg) were 0% and 100%, respectively. The “% de protection contre la mort” value in series [4] came to 50%.

Turning to `CC(=O)Oc1cc(C(C)C)c(OCCN(C)C)cc1C` [Thymoxamine, chlorhydrate de thymoxamine, reference compound], the Kb in series [1] is 56.2 nM. Moreover, the ED50 came to 2.9 mg/kg in series [2] (setting [5]) and 0.7 mg/kg in series [2] (setting [6]). The “R DI50 (a) DI50 (u)” value in series [2] is 4,1. Moreover, the mortality was 0% in series [3] (100 mg/kg) and 100% in series [3] (1000 mg/kg). Also, in series [4], the “% de protection contre la mort” value was determined as 80%.
